Results from ChEMBL document CHEMBL3526122, “Identification of UDP-glucuronosyltransferases responsible for the glucuronidation of darexaban, an oral factor Xa inhibitor, in human liver and intestine” (Drug Metab Dispos, 2012).

What was measured:
Assay type in all cases: ADME
[1] = target: T1, UDP-glucuronosyltransferase 1A10 (Homo sapiens, UniProt Q9HAW8); assay: Activity of recombinant human UGT1A10 expressed in baculovirus-infected insect cells assessed as enzyme-mediated glucuronidation per mg of protein after 10 mins in presence of UDPGA
T1 sequence (Q9HAW8 whole entry): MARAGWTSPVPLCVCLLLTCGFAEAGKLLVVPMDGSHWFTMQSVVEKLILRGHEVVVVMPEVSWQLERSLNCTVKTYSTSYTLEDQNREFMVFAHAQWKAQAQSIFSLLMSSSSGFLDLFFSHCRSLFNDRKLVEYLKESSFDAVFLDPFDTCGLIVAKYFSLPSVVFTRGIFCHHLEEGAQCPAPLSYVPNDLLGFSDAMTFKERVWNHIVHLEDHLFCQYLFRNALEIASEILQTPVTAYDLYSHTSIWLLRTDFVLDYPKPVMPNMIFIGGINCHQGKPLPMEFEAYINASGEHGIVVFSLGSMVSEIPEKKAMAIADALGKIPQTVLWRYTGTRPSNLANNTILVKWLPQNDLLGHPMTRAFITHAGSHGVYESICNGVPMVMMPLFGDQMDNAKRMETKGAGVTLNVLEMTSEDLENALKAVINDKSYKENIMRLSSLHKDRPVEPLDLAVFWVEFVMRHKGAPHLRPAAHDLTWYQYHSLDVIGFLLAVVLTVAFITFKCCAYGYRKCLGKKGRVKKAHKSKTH

[2] = target: T2, UDP-glucuronosyltransferase 1A3 (Homo sapiens, UniProt P35503); assay: Activity of human recombinant UGT1A3 expressed in baculovirus-infected insect cells assessed as enzyme-mediated glucuronidation per mg of protein after 10 mins in presence of UDPGA
T2 sequence (P35503 whole entry): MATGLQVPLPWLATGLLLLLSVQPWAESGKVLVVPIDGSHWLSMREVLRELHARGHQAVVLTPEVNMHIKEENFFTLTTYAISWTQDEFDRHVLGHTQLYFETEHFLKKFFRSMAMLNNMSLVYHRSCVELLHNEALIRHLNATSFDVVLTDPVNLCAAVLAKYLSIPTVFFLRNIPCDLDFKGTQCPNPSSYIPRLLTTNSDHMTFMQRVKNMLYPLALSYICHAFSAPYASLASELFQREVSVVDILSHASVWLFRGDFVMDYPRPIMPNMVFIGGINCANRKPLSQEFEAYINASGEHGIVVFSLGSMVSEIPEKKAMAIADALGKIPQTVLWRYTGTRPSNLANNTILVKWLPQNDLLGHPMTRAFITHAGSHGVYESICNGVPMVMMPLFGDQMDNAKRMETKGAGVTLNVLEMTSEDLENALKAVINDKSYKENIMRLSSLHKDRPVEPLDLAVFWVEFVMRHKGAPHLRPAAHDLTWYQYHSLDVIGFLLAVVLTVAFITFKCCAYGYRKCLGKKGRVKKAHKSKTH

[3] = target: T3, UDP-glucuronosyltransferase 1A7 (Homo sapiens, UniProt Q9HAW7); assay: Activity of human recombinant UGT1A7 expressed in baculovirus-infected insect cells assessed as enzyme-mediated glucuronidation per mg of protein after 10 mins in presence of UDPGA
T3 sequence (Q9HAW7 whole entry): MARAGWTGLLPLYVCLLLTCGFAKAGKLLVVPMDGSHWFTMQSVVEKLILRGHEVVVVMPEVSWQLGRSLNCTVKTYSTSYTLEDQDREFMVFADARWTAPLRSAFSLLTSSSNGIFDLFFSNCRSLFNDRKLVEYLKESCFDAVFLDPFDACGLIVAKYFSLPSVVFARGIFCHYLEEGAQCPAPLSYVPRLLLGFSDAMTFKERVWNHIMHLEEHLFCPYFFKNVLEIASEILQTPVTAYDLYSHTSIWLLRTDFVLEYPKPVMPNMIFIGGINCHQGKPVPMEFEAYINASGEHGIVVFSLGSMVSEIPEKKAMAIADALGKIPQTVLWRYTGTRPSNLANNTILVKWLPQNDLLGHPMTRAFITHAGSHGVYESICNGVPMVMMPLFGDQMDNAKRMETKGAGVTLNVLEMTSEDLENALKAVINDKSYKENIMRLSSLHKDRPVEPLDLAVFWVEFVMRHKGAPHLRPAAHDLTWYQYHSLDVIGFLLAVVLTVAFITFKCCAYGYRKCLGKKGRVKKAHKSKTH

[4] = target: T4, UDP-glucuronosyltransferase 1A1 (Homo sapiens, UniProt P22309); assay: Activity of human recombinant UGT1A1 expressed in baculovirus-infected insect cells assessed as enzyme-mediated glucuronidation per mg of protein after 10 mins in presence of UDPGA
T4 sequence (P22309 whole entry): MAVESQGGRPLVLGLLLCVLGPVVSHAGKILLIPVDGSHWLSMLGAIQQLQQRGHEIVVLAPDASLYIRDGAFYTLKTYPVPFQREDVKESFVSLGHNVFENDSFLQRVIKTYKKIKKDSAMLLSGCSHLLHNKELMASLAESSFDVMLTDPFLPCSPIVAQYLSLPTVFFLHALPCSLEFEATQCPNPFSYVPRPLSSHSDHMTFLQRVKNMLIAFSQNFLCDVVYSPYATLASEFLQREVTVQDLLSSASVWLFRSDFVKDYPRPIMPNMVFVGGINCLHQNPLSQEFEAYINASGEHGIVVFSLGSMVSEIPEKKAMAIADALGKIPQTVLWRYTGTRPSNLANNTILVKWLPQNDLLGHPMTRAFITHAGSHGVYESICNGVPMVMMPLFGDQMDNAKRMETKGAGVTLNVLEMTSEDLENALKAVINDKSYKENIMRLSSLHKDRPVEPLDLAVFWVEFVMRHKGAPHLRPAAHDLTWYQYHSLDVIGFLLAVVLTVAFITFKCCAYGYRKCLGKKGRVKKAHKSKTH

[5] = target: T5, UDP-glucuronosyltransferase 2B17 (Homo sapiens, UniProt O75795); assay: Activity of human recombinant UGT2B17 expressed in baculovirus-infected insect cells assessed as enzyme-mediated glucuronidation per mg of protein after 10 mins in presence of UDPGA
T5 sequence (O75795 whole entry): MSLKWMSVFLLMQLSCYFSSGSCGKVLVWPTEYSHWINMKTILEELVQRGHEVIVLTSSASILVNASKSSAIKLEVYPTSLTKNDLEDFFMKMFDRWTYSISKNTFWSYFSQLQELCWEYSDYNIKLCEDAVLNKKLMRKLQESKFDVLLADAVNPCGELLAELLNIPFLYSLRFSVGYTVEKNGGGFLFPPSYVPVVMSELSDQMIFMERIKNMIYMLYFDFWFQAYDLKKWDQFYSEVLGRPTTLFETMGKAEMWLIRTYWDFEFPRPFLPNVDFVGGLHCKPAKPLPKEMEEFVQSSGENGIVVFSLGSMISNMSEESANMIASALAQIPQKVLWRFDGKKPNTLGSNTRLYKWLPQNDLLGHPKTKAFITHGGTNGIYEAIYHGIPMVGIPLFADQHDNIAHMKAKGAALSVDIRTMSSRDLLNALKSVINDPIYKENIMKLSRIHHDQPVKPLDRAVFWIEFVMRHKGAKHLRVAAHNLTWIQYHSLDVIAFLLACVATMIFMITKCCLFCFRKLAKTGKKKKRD

[6] = Drug metabolism in human liver microsomes assessed as glucuronidation after 10 mins by Michaelis-Menten plot analysis in presence of UDPGA and absence of fatty acid free BSA; conditions: read-out: Km(unbound)

COc1ccc(C(=O)Nc2cccc(O)c2NC(=O)c2ccc(N3CCCN(C)CC3)cc2)cc1.O=C(O)CCC(=O)O
Drug metabolism [1]: 0.516 nmol/min/mg | Drug metabolism [2]: < 0.01 nmol/min/mg | Drug metabolism [3]: 0.251 nmol/min/mg | Drug metabolism [4]: < 0.01 nmol/min/mg | Drug metabolism [5]: < 0.01 nmol/min/mg | Km at 10 min [6]: 216 µM
